System: 653999-131-R-J2-PDC complex spheroids, growth inhibition
Assay: Anticancer human tumor 653999-131-R-J2-PDC patient-derived lung adenocarcinoma cell line growth inhibition [RAS]
Settings: for IC50: curve of first compound; for viability, T/C: stronger effect = lower value; active = viability on the fitted dose curve at most 10% of control; inactive = the rest
Summary of the method: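 Multi-cell-type spheroids: tumor cells plus HUVEC endothelial cells and mesenchymal stem cells. RAS-pathway inhibitors were combined with targeted agents, each dosed in half-log steps down from clinical Cmax, or from 10 microM when Cmax was unknown.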
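Also: spheroids exposed to the agents for seven days before the readout.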

CCc1c2c(nc3ccc(O)cc13)-c1cc3c(c(=O)n1C2)COC(=O)[C@]3(O)CC + CCn1c(-c2cc(N3CCN(C)CC3)cnc2C(C)OC)c2c3cc(ccc31)-c1csc(n1)CC(NC(=O)C1CC1C)C(=O)N1CCCC(N1)C(=O)OCC(C)(C)C2
1.3 nM: IC50 (second compound 0.003 µM)
inactive: viability, T/C (second compound 0.000949 µM, first compound 0.000949 µM) 70.2% | viability, T/C (second compound 0.000949 µM, first compound 0.003 µM) 48.4% | viability, T/C (second compound 0.000949 µM, first compound 0.00949 µM) 42.2% | viability, T/C (second compound 0.000949 µM, first compound 0.03 µM) 25.1% | viability, T/C (second compound 0.000949 µM, first compound 0.0949 µM) 17.2% | viability, T/C (second compound 0.000949 µM, first compound 0.3 µM) 11.2% | viability, T/C (second compound 0.003 µM, first compound 0.000949 µM) 56% | viability, T/C (second compound 0.003 µM, first compound 0.003 µM) 34.1% | viability, T/C (second compound 0.003 µM, first compound 0.00949 µM) 30.6% | viability, T/C (second compound 0.003 µM, first compound 0.03 µM) 17.5% | viability, T/C (second compound 0.003 µM, first compound 0.0949 µM) 14.7% | viability, T/C (second compound 0.003 µM, first compound 0.3 µM) 10.1% | viability, T/C (second compound 0.00949 µM, first compound 0.000949 µM) 39.1% | viability, T/C (second compound 0.00949 µM, first compound 0.003 µM) 27.3% | viability, T/C (second compound 0.00949 µM, first compound 0.00949 µM) 18.9% | viability, T/C (second compound 0.00949 µM, first compound 0.03 µM) 14.1% | viability, T/C (second compound 0.03 µM, first compound 0.000949 µM) 29.8% | viability, T/C (second compound 0.03 µM, first compound 0.003 µM) 18.2% | viability, T/C (second compound 0.03 µM, first compound 0.00949 µM) 17.8% | viability, T/C (second compound 0.03 µM, first compound 0.03 µM) 9.32% | viability, T/C (second compound 0.0949 µM, first compound 0.000949 µM) 23.9% | viability, T/C (second compound 0.0949 µM, first compound 0.003 µM) 15.4% | viability, T/C (second compound 0.0949 µM, first compound 0.00949 µM) 11.4% | viability, T/C (second compound 0.3 µM, first compound 0.000949 µM) 21.1% | viability, T/C (second compound 0.3 µM, first compound 0.003 µM) 14.4% | viability, T/C (second compound 0.3 µM, first compound 0.00949 µM) 11.6%
active: viability, T/C (second compound 0.00949 µM, first compound 0.0949 µM) 9.53% | viability, T/C (second compound 0.00949 µM, first compound 0.3 µM) 6.56% | viability, T/C (second compound 0.03 µM, first compound 0.0949 µM) 6.76% | viability, T/C (second compound 0.03 µM, first compound 0.3 µM) 6.96% | viability, T/C (second compound 0.0949 µM, first compound 0.03 µM) 9.9% | viability, T/C (second compound 0.0949 µM, first compound 0.0949 µM) 7.72% | viability, T/C (second compound 0.0949 µM, first compound 0.3 µM) 5.39% | viability, T/C (second compound 0.3 µM, first compound 0.03 µM) 9.69% | viability, T/C (second compound 0.3 µM, first compound 0.0949 µM) 6.54% | viability, T/C (second compound 0.3 µM, first compound 0.3 µM) 4.62%
< 0.949 nM: IC50 (second compound 0.00949 µM) | IC50 (second compound 0.03 µM) | IC50 (second compound 0.0949 µM) | IC50 (second compound 0.3 µM)
3.61 nM: IC50 (second compound 0.000949 µM)
